This is an account of results in ChEMBL document CHEMBL5506050, “Discovery of Oral AMP-Activated Protein Kinase Activators for Treating Hyperlipidemia” (J Med Chem, 2024).

This assay relates to Mus musculus. Briefly: Lipid lowering effect on high-fat diet-fed Kunming mouse assessed as serum total cholesterol level at 130 mg/kg, po qd via gavage for 7 days consecutively (reference value: 159.3 +/- 11.5 mg/dl). In kind it is functional. The note with it: time 7 day.

For `CC(C)(Sc1cc(C(C)(C)C)c(O)c(C(C)(C)C)c1)Sc1cc(C(C)(C)C)c(O)c(C(C)(C)C)c1` [PROBUCOL], the Activity was found to be 130 mg/dL.
